Measurements from patent publication US20130330322A1, “Methods of Treating Skin Aging With Toll-Like Receptor 7 Agonists” (Metabeauty, Inc., priority 2012, published 2013).

Assays:
[1] = tested on: normal photodamaged dermal or epidermal tissue; conditions: topical application; cited from earlier work
aging skin [2] = assay: twelve-week clinical study, combined contemporaneous treatment with IRM and retinoid (2a); format: in vivo, human; conditions: contemporaneous application
Procedure: On Day 0, each enrolled subject is supplied with a package of individually coded tubes of cream, labeled “Tube A” and “Tube B”. Tube A contains one of two formulations: 5% IRM+vehicle (carrier); or vehicle only (placebo); Tube B contains either 0.025% tretinoin in a cream formulation or vehicle only (placebo). The subjects apply Tube A to the arms and face, wait 5 minutes, and then apply the contents of Tube B over the same area. Labels are randomly assigned with records separately maintained identifying the formulation. Codes are not known to either the subjects or the investigator until the study is completed and the data analyzed. All subjects receive Cetaphil cleanser, moisturizer and sunscreen for daily use throughout the study. The first application of Tube A and B is done in the presence of the study coordinator to ensure proper application. Written directions are given to the subjects to apply the products at the same time of day every day and to apply Tube B five minutes after applying Tube A.
Study participants apply the study creams once daily for 12 weeks. […]
Skin firmness (elasticity) is assessed using a ballistometer. Skin retention of water/skin moisture content is assessed via impedance measurements on the cheek area of subjects using a Novameter. Transepidermal water loss is measured using a Tewameter. Sebum secretion is measured using a Sebometer and Sebutape.

aging skin [3] = assay: clinical study, combined day/night treatment with IRM and retinoid (2b); format: in vivo, human; conditions: day/night application
Procedure: The above study is repeated except that the topical composition containing the IRM is applied in the morning and a topical composition containing tretinoin is applied at night. Standard 2-4 mm skin punch biopsies are taken at pre-identified sites (on subject's arms) on Day 0 and at the Week 12 visit. Subjects apply the assigned formulation in the presence of the investigator and return for a biopsy within 4-6 hours.

PBMC and pDC = assay: cytokine production by PBMC and plasmacytoid dendritic cells (RT-PCR, ELISA); format: cell-based, human; conditions: added at 0.02% to 1% at the same time as TLR-7 agonists
Procedure: Cytokine production by plasmacytoid dendritic cells is measured using real-time RT-PCR on RNA collected from peripheral blood mononuclear cells (PBMC) including pDC (plasmacytoid dendritic cells).
An IRM (TLR-7 agonist) as described in one of the four embodiments of the present invention is introduced into a 24-well plate containing PBMC and pDC h Control wells are treated with DMSO. Cells are incubated for either one or two hours at 37° C. At the indicated times the cells are harvested by gently pipeting the cells into a 1.5 mL Eppendorf tube and centrifuging at 400 RCF for 10 min at 4° C. The supernatant is removed from the tube and the cells are lysed with 1 mL TRIzol (Life Technologies). […] RNA is quantified by absorbency (Abs260) and is reverse-transcribed using SuperScript First Strand Synthesis System for RT-PCR (Life Technologies). Primers for quantitative PCR are generated using Primer Express (PE Applied Biosystems). […] Quantitative PCR is performed on an ABI PRISM 7700 Sequence Detector. Amplified products are detected using SYBR Green PCR Master Mix (PE Biosystems). […] Relative quantitation of gene expression was performed using the DDCt method (User Bulletin #2, PE Applied Systems).
Cytokine and chemokine protein levels are measured from tissue culture supernatants or cell extracts using commercially-available enzyme-linked immuno assay (ELISA) kits. […]

SMILES | time until improved appearance (reduction in the appearance of fine lines and wrinkles) is visible [1] | Irritation (erythema and scaling) (aging skin [2]) | TEWL (Tewameter) (aging skin [2]) | Irritation (erythema and scaling) (aging skin [3]) | TEWL (Tewameter) (aging skin [3]) | amount of IFN-γ expressed by PBMC cells upon exposure to the TLR-7 agonist (PBMC and pDC)
CC(C)Cn1cnc2c(N)nc3ccccc3c21 [Imiquimod, 1-isobutyl-1H-imidazo[4,5,-C]quinolin-4-amine] | ≤ 4 weeks |  |  |  |  | 
CC1=C(/C=C/C(C)=C/C=C/C(C)=C/C(=O)O)C(C)(C)CCC1 [tretinoin, all-trans retinoic acid] |  | at all time points but maximally at the 2 and 4 week time points | increased TEWL | at all time points but maximally at the 2 and 4 week time points | increased TEWL | lowers
